From US20250250241A1, “COMPOUND, PREPARATION AND USE THEREOF IN RUBBER BLENDS AND VEHICLE TIRES, AS AN ANTI-AGING AGENT, ANTIOXIDANT, ANTIOXIDANT AND/OR COLORING AGENT” (Continental Reifen Deutschland GmbH, priority 2022, published 2025)

Experiment: Measurement of oxidation induction time (OIT) by DSC
Type: physicochemical
Settings: with liquid polyisoprene LIR-50, DSC; for Time until onset of oxidation (oxidation induction time) at 150° C.: isothermal 150° C., experiments terminated after 900 minutes; for Time until onset of oxidation (oxidation induction time) at 150° C. / Time until onset of oxidation (oxidation induction time) at 165° C.: O2 atmosphere; for Time until onset of oxidation (oxidation induction time) at 165° C.: isothermal 165° C.; for Time until onset of oxidation (oxidation induction time) at 180° C.: isothermal 180° C., O2 atmosphere 50 ml/min
Procedure: Measurement of Oxidation Induction Time (OIT)
The compound of formula III) was investigated under laboratory conditions for its potential protective effect as an aging stabilizer by measurement of the oxidation induction time.
To this end the compounds of formula III) and 6PPD, in each case together with a polymer (liquid synthetic polyisoprene (IR), LIR-50, Kuraray, weight average molecular weight distribution Mw=54 000 g/mol, glass transition temperature Tg=−63° C.), were heated at constant temperature at three different temperatures (180° C.; 165° C.; 150° C.) until onset of oxidation.
Heating to 180° C. was carried out as follows: • Starting temperature 35° C., heating to 170° C. at a heating rate of 20 K/min (kelvin per minute), heating to 180° C. at a heating rate of 1 K/min; purge gas: nitrogen (N2), volume flow 50 ml/min).
The specimen was kept under isothermal conditions at 180° C. under an N2 atmosphere for 5 minutes and the atmosphere was then switched to an O2 atmosphere (volume flow 50 ml/min).
The heating to 165° C. was carried out analogously by first heating to 155° C. at a heating rate of 20 K/min (kelvin per minute) and then heating to 165° C. at a heating rate of 1 K/min.
The heating to 150° C. was carried out analogously by first heating to 140° C. at a heating rate of 20 K/min (kelvin per minute) and then heating to 150° C. at a heating rate of 1 K/min.
Oxidation was determined over one peak using DSC (differential scanning calorimetry).
The time in minutes until oxidation was measured in each case.

SMILES | Time until onset of oxidation (oxidation induction time) at 150° C. [min] | Time until onset of oxidation (oxidation induction time) at 165° C. [min] | Time until onset of oxidation (oxidation induction time) at 180° C. [min]
CC(C)CC(C)Nc1ccc(Nc2ccccc2)cc1 (stereo not drawn) [Formula 6PPD, N-(1,3-dimethylbutyl)-N′-phenyl-p-phenylenediamine] | >900 | 356 ± 10 | 116 ± 10
CC(C)CC(C)Nc1ccc2c(c1)C(=O)Nc1ccccc1N2 (stereo not drawn) [Formula III), 2-(1,3-dimethylbutylamino)-5,10-dihydro-dibenzo[b,e][1,4]diazepin-11-one] | >900 | 459 ± 10 | 169 ± 10
